# Calls of active or inactive are those of the source. The calls are words filed in the database; no cut-off is given here.
# Key:
# [1] = Cytotoxicity against LPS/IFNgamma induced mouse RAW264.7 cells assessed as inhibition of cell growth preincubated for 24 hrs followed by LPS/IFNgamma stimulation and measured after 24 hrs by SRB assay; assay type: toxicity, cell-based; conditions: RAW264.7 cells induced with LPS/IFNgamma, time 48 hrs
# [2] = Inhibition of TNF-alpha induced NF-kappaB activation in HEK293T cells preincubated for 4 hrs and followed by TNF-alpha stimulation and measured after 4 hrs by dual-luciferase reporter assay; assay type: cell-based; conditions: Homo sapiens, HEK-293T
# [3] = Selectivity index, ratio of CC50 for cytotoxicity against TNF-alpha induced HEK293T cells to IC50 for inhibition of TNF-alpha induced NF-kappaB activation in HEK293T cells; assay type: toxicity, cell-based; conditions: human, HEK293T cells induced with TNF-alpha; read-out: Ratio IC50
# [4] = Toxicity in Kunming mouse assessed as increase in body weight at 1111 mg/kg, po measured for 15 days (reference value: 12.38%); assay type: organism-based; conditions: in vivo, 360 h, time 15 day
# [5] = Toxicity in Kunming mouse assessed as increase in body weight at 1852 mg/kg, po measured for 15 days (reference value: 12.38%); assay type: organism-based; conditions: in vivo, 360 h, time 15 day
# [6] = Cytotoxicity against human HCT-116 cells assessed as inhibition in cell proliferation; assay type: toxicity, cell-based
# [7] = system: HCT-116; experiment: Inhibition of TNF-alpha-induced NF-kappaB nuclear translocation in human HCT-116 cells preincubated for 4 hrs followed by TNF-alpha stimulation and measured after 30 mins by immunofluorescence staining based laser scanning confocal microscopic analysis; assay type: cell-based; conditions: dose 25-50 µM, time 4.5 hrs
# [8] = system: HCT-116; experiment: Inhibition of TNF-alpha induced NF-kB activation in human HCT-116 cells assessed as decrease in phosphorylated IkappaBalpha protein expression preincubated for 4 hrs and followed TNF-alpha stimulation and measured after 10 mins by Western blot analysis; assay type: cell-based; conditions: dose 12.5-50 µM, time 250.0 min
# [9] = system: DLD-1; experiment: Effect on IKK protein expression in TNF-alpha stimulated human DLD-1 cells at 12.5 to 50 uM preincubated for 4 hrs and followed TNF-alpha stimulation and measured after 10 mins by Western blot analysis; assay type: functional, cell-based; conditions: dose 12.5-50 µM, time 250.0 min
# [10] = system: HCT-116; experiment: Effect on IKK protein expression in TNF-alpha stimulated human HCT-116 cells at 12.5 to 50 uM preincubated for 4 hrs and followed TNF-alpha stimulation and measured after 10 mins by Western blot analysis; assay type: functional, cell-based; conditions: dose 12.5-50 µM, time 250.0 min
# [11] = target: T1, NF-kappa-B inhibitor alpha (Homo sapiens) (UniProt P25963); experiment: Inhibition of proteasomal degradation of IkappaBalpha in TNF-alpha induced human DLD-1 cells assessed as increase in IkappaBalpha protein expression at 12.5 to 50 uM preincubated for 4 hrs and followed TNF-alpha stimulation and measured after 10 mins by Western blot analysis; assay type: cell-based; conditions: dose 12.5-50 µM, time 250.0 min
# T1 sequence (whole entry): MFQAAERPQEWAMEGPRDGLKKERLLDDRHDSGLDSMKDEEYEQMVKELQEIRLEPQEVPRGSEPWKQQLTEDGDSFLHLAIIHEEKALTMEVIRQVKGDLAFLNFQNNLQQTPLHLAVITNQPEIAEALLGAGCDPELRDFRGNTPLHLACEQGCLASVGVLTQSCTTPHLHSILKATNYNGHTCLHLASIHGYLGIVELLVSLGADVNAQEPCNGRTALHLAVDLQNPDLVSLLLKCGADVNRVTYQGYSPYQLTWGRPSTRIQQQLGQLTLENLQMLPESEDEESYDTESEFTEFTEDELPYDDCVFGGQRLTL
# [12] = system: DLD-1; experiment: Effect on p38 protein expression in TNF-alpha stimulated human DLD-1 cells at 6.25 to 50 uM preincubated for 4 hrs and followed TNF-alpha stimulation and measured after 10 mins by Western blot analysis; assay type: functional, cell-based; conditions: dose 6.25-50 µM, time 250.0 min
# [13] = system: HCT-116; experiment: Upregulation of ERK protein expression in TNF-alpha stimulated human HCT-116 cells at 50 uM preincubated for 4 hrs and followed TNF-alpha stimulation and measured after 10 mins by Western blot analysis; assay type: functional, cell-based; conditions: time 250.0 min
# [14] = system: DLD-1; experiment: Upregulation of ERK protein expression in TNF-alpha stimulated human DLD-1 cells at 50 uM preincubated for 4 hrs and followed TNF-alpha stimulation and measured after 10 mins by Western blot analysis; assay type: functional, cell-based; conditions: time 250.0 min
# [15] = system: DLD-1; experiment: Activation of MAPK signaling pathway in TNF-alpha stimulated human DLD-1 cells assessed as increase in phospho-ERK protein expression at 50 uM preincubated for 4 hrs and followed TNF-alpha stimulation and measured after 10 mins by Western blot analysis; assay type: cell-based; conditions: filed as activator, time 250.0 min
# [16] = system: HCT-116; experiment: Inhibition of TNF-alpha induced MAPK signaling pathway activation in human HCT-116 cells assessed as decrease in phospho-JNK protein expression at 6.25 uM preincubated for 4 hrs and followed TNF-alpha stimulation and measured after 10 mins by Western blot analysis; assay type: cell-based; conditions: time 250.0 min
# [17] = system: HCT-116; experiment: Inhibition of TNF-alpha induced MAPK signaling pathway activation in human HCT-116 cells assessed as decrease in phospho-ERK protein expression at 6.25 uM preincubated for 4 hrs and followed TNF-alpha stimulation and measured after 10 mins by Western blot analysis; assay type: cell-based; conditions: time 250.0 min
# [18] = system: Mus musculus; experiment: Anti-inflammatory activity in po dosed C57BL/6 mouse model of DSS-induced acute ulcerative colitis assessed as decrease in TNF-alpha expression in serum administered once a day for 7 days by ELISA; assay type: functional, organism-based; conditions: dose 100-300 mg/kg, time 7.0 day
# [19] = system: Mus musculus; experiment: Anti-inflammatory activity in C57BL/6 mouse model of DSS-induced acute ulcerative colitis assessed as reduction in hyperemia at 100 to 300 mg/kg, po administered once a day for 7 days by H and E staining based analysis; assay type: functional, organism-based; conditions: dose 100-300 mg/kg, time 7.0 day
# [20] = system: Mus musculus; experiment: Anti-inflammatory activity in C57BL/6 mouse model of DSS-induced acute ulcerative colitis assessed as reduction in submucosal edema at 100 to 300 mg/kg, po administered once a day for 7 days by H and E staining based analysis; assay type: functional, organism-based; conditions: dose 100-300 mg/kg, time 7.0 day
# [21] = system: Mus musculus; experiment: Anti-inflammatory activity in C57BL/6 mouse model of DSS-induced acute ulcerative colitis assessed as reduction in p65 expression in colon at 100 to 300 mg/kg, po administered once a day for 7 days by immunohistochemical analysis; assay type: functional, organism-based; conditions: dose 100-300 mg/kg, time 7.0 day
# [22] = Toxicity in C57BL/6 mouse model of DSS-induced acute ulcerative colitis assessed as effect on liver tissue at 100 to 300 mg/kg, po administered once a day for 7 days by H and E staining based analysis; assay type: organism-based; conditions: in vivo, 168 h, dose 100-300 mg/kg, time 7 day
# [23] = system: HCT-116; experiment: Cytotoxicity against human HCT-116 cells assessed as induction of stress response at 50 uM; assay type: toxicity, cell-based; conditions: hct-116, 50 µM
# [24] = system: Mus musculus; experiment: Anti-inflammatory activity in C57BL/6 mouse model of DSS-induced acute ulcerative colitis assessed as reduction in histopathological changes of granulocyte infiltration at 100 to 300 mg/kg, po administered once a day for 7 days by H and E staining based analysis; assay type: functional, organism-based; conditions: dose 100-300 mg/kg, time 7.0 day
# [25] = system: Mus musculus; experiment: Anti-inflammatory activity in C57BL/6 mouse model of DSS-induced acute ulcerative colitis assessed as reversal of DSS-induced weight loss at 100 to 300 mg/kg, po administered once a day for 7 days; assay type: functional, organism-based; conditions: dose 100-300 mg/kg, time 7.0 day
# [26] = Toxicity in Kunming mouse assessed as number of mouse survived at 400 mg/kg, po measured for 15 days; assay type: organism-based; conditions: in vivo, 360 h, time 15 day
compound,measurement,setting,value
COC(=O)C1=C(C(=O)OC)C2OC1CC2C#Cc1ccc(C)cc1 (stereo unspecified),CC50 at 24 h,[1],12.2 µM
same,IC50,[2],16.1 µM
same,selectivity ratio,[3],5.85
same,Activity,[4],6.01%
same,Activity,[5],15.38%
same,IC50,[6],14.3 µM
same,inhibition,[7],Dose-Dependent Effect
same,inhibition,[8],Dose-Dependent Effect
same,Activity,[9],inactive
same,Activity,[10],inactive
same,inhibition,[11],Active
same,Activity,[12],inactive
same,Activity,[13],Active
same,Activity,[14],Active
same,Activity,[15],Active
same,inhibition,[16],Active
same,inhibition,[17],Active
same,Activity,[18],Dose-Dependent Effect
same,Activity,[19],Active
same,Activity,[20],Active
same,Activity,[21],Active
same,Activity,[22],Non-Toxic
same,Activity,[23],Toxic
same,Activity,[24],Active
same,Activity,[25],Active
same,Activity,[26],0

# From ChEMBL document CHEMBL5634091, “Cantharidin analogue alleviates dextran sulfate sodium-induced colitis in mice by inhibiting the activation of NF-κB signaling” (Eur J Med Chem, 2023)
